target: T1, 5-HT7 receptors (Homo sapiens, UniProt P34969); experiment: Radiolabeled binding ([3H]LSD competition), membranes of cells expressing recombinant 5-HT7 receptors; set-up: expressed in transfected cells; conditions: [3H]LSD radioligand binding
Method: ^1Radiolabeled Binding (IC50 and K1)
A solution of the compound of the disclosure to be tested was prepared as a 1-mg/ml stock in Assay Buffer or DMSO according to its solubility. A similar stock of the reference compound chlorpromazine was also prepared as a positive control. Eleven dilutions (5×assay concentration) of the compound of the disclosure and chlorpromazine were prepared in the Assay Buffer by serial dilution to yield final corresponding assay concentrations ranging from 10 pM to 10 μM.
A stock concentration of 5 nM [^3H]LSD (lysergic acid diethyl amide) was prepared in 50 mM Tris-HCl, 10 mM MgCl2, 1 mM EDTA, pH 7.4 (Assay Buffer). Aliquots (50 μl) of radioligand were dispensed into the wells of a 96-well plate containing 100 μl of Assay Buffer. Duplicate 50-μl aliquots of the compound of the disclosure test and chlorpromazine positive control reference compound serial dilutions were added.
Membrane fractions of cells expressing recombinant 5-HT7 receptors (50 μL) were dispensed into each well. The membranes were prepared from stably transfected cell lines expressing 5-HT7 receptors cultured on 10-cm plates by harvesting PBS-rinsed monolayers, resuspending and lysing in chilled, hypotonic 50 mM Tris-HCl, pH 7.4, centrifuging at 20,000×g, decanting the supernatant and storing at −80° C.; the membrane preparations were resuspended in 3 ml of chilled Assay Buffer and homogenized by several passages through a 26 gauge needle before using in the assay.
The 250-μl reactions were incubated at room temperature for 1.5 hours, then harvested by rapid filtration onto 0.3% polyethyleneimine-treated, 96-well filter mats using a 96-well Filtermate harvester. Four rapid 500-μl washes were performed with chilled Assay Buffer to reduce non-specific binding. The filter mats were dried, then scintillant is added to the filters and the radioactivity retained on the filters was counted in a Microbeta scintillation counter.
Raw data (dpm) representing total radioligand binding (i.e., specific+non-specific binding) was plotted as a function of the logarithm of the molar concentration of the competitor (i.e., test or reference compound). Non-linear regression of the normalized (i.e., percent radioligand binding compared to that observed in the absence of test or reference compound) raw data was performed in Prism 4.0 (GraphPad Software) using the built-in three parameter logistic model describing ligand competition binding to radioligand-labeled sites:
y=bottom+[(top−bottom)/(1+10×−log IC50)]
where bottom equals the residual radioligand binding measured in the presence of 10 μM reference compound (i.e., non-specific binding) and top equals the total radioligand binding observed in the absence of competitor. The log IC50 (i.e., the log of the ligand concentration that reduces radioligand binding by 50%) was thus estimated from the data and used to obtain the Ki by applying the Cheng-Prusoff approximation:
where [ligand] equals the assay radioligand concentration and KD equals the affinity constant of the radioligand for the target receptor. Functional Data (Kb)

T1 sequence (P34969 whole entry): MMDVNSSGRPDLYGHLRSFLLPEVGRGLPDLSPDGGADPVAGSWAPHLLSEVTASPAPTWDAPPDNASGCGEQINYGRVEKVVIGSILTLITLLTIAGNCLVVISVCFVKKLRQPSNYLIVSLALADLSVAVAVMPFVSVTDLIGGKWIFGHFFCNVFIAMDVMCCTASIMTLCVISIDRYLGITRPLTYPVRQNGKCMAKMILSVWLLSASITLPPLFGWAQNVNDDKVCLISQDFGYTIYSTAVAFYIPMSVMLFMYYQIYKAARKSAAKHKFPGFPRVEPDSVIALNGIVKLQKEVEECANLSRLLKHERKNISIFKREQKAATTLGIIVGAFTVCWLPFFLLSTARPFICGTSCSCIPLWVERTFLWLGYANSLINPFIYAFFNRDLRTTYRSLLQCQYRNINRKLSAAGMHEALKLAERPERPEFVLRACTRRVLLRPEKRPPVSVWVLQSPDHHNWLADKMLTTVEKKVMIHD

| SMILES | Ki |
| --- | --- |
| CS(=O)(=O)NCC(=O)N1CCC2(CC1)C[C@H](CCN1CCN(c3ccc(F)cc3)CC1)NC2=O [Compound A10] | 0.05 to 0.2 µM |
| O=C(CN1CCOCC1)N1CCC2(CC1)C[C@H](CCN1CCN(c3ccc(F)cc3)CC1)NC2=O [Compound A33] | ≥ 0.5 µM |
| CC(C)(C)C(=O)NCC(=O)N1CCC2(CC1)C[C@H](CCN1CCN(c3ccc(F)cc3)CC1)NC2=O [Compound A25] | 0.2 to 0.5 µM |
| CC(=O)NC(C)(C)C(=O)N1CCC2(CC1)C[C@H](CCN1CCN(c3ccc(F)cc3)CC1)NC2=O [Compound A17] | 0.2 to 0.5 µM |
| CS(=O)(=O)NCC(=O)N1CCC2(CC1)C[C@H](CCN1CCN(c3cccc(Cl)c3)CC1)NC2=O [Compound A9] | 0.05 to 0.2 µM |
| CC(C)(C)C(=O)NC(C)(C)C(=O)N1CCC2(CC1)C[C@H](CCN1CCN(c3ccc(F)cc3)CC1)NC2=O [Compound A21] | 0.05 to 0.2 µM |
| CN(C)CC(=O)N1CCC2(CC1)C[C@H](CCN1CCN(c3ccc(F)cc3)CC1)NC2=O [Compound A29] | ≥ 0.5 µM |
| CN(C)CC(=O)N1CCC2(CC1)C[C@H](CCN1CCN(c3cccc(Cl)c3)CC1)NC2=O [Compound A30] | 0.2 to 0.5 µM |
| O=C(CN1CCOCC1)N1CCC2(CC1)C[C@H](CCN1CCN(c3cccc(Cl)c3)CC1)NC2=O [Compound A34] | 0.2 to 0.5 µM |
| CC(C)(N)C(=O)N1CCC2(CC1)C[C@H](CCN1CCN(c3ccc(F)cc3)CC1)NC2=O [Compound A13] | 0.2 to 0.5 µM |
| CC(C)(C)C(=O)NC(C)(C)C(=O)N1CCC2(CC1)C[C@H](CCN1CCN(c3cccc(Cl)c3)CC1)NC2=O [Compound A22] | 0.05 to 0.2 µM |
| CC(=O)NC(C)(C)C(=O)N1CCC2(CC1)C[C@H](CCN1CCN(c3cccc(Cl)c3)CC1)NC2=O [Compound A18] | 0.2 to 0.5 µM |
| CC(C)(N)C(=O)N1CCC2(CC1)C[C@H](CCN1CCN(c3cccc(Cl)c3)CC1)NC2=O [Compound A14] | 0.2 to 0.5 µM |
| CC(C)(C)C(=O)NCC(=O)N1CCC2(CC1)C[C@H](CCN1CCN(c3cccc(Cl)c3)CC1)NC2=O [Compound A26] | 0.2 to 0.5 µM |

Other lines, results leading:

| Ki | SMILES |
| --- | --- |
| < 0.05 µM | CCC1(CC)C[C@H](CCN2CCN(c3ccc(F)cc3)CC2)N(C)C1=O [Compound A87] |
| < 0.05 µM | CCC1(CC)C[C@H](CCN2CCN(c3cccc(Cl)c3)CC2)N(C)C1=O [Compound A86] |
| 0.05 to 0.2 µM | CCC1(CC)C[C@H](CCN2CCN(c3ccccc3)CC2)N(C)C1=O [Compound A85] |

same assay, conditions: read-out: 5-HT7 % Inhib. @ 0.1 uM (Ki column)

| inhibition at 0.1 µM | SMILES |
| --- | --- |
| 63% | CC(=O)N1CCC2(CC1)C[C@H](CCN1CCN(c3ccc(F)cc3)C[C@H]1C)NC2=O [Compound A108] |
| 40% | CC(=O)N1CCC2(CC1)C[C@H](CCN1CCN(c3ccc(F)cc3)[C@@H](C)C1)NC2=O [Compound A109] |
| 62% | CC(=O)N1CCC2(CC1)C[C@H](CCN1CCN(c3ccc(F)cc3)C[C@@H]1C)NC2=O [Compound A107] |
| 64% | CC(=O)N[C@@H](C)C(=O)N1CCC2(CC1)C[C@H](CCN1CCN(c3ccc(F)cc3)C[C@H]1C)NC2=O [Compound A123] |

same assay, conditions: read-out: 5-HT7 % Inhib. @ 1 uM (Ki column)

| inhibition at 1 µM | SMILES |
| --- | --- |
| 45% | CC(=O)N1CCC2(CC1)C[C@H](CCN1CCN(c3ccc(F)cc3)[C@H](C)C1)NC2=O [Compound A110] |

target: T1, 5-HT7 receptors; experiment: HitHunter cAMP enzyme fragment complementation assay, antagonist activity in presence of 5-HT (Kb); assay type: cell-based; set-up: expressed in transfected cells; kept under G418 selection; conditions: antagonist mode vs EC70 5-HT
Method: Functional efficacy of the compounds of the disclosure on 5-HT7 serotonin receptors were measured in a cell based cAMP enzyme fragment complementation assay using the HitHunter cAMP assay (DiscoveRx). Cells stably expressing human 5HT7 receptors were plated in 96-well plates at 4000 cells/well, 16-20 hours prior to assay in growth media (Ultraculture medium, 2 mM GlutaMax and G418 1 mg/mL. Serial dilutions of the agonist, 5-hydroxytryptamine (5-HT), were prepared in a final concentration range of 10 μM to 10 nM. Compounds of the disclosure were prepared in 3-fold serial dilutions to obtain a final concentration range of 10 μM to 0.1 nM. Compounds of the disclosure are tested for agonist activity in the absence of 5-HT and antagonist activity in the presence of 5-HT. For the cAMP assay, the protocol was followed according to the instructions provided by the supplier. Briefly, cells were incubated with a compound of the disclosure for 30 minutes at 37° C. prior to addition of EC70 concentration of 5-HT. After an additional 30 minutes, cAMP antibody/cell lysis solution was added (20 μL/well) and incubated for 60 minutes at room temperature, cAMP XS+EA reagent is added (20 μL/well) and incubated for 2 hours at room temperature. Luminescence was read on the Envision Multilabel plate reader.

| SMILES | Kb |
| --- | --- |
| CS(=O)(=O)NCC(=O)N1CCC2(CC1)C[C@H](CCN1CCN(c3ccc(F)cc3)CC1)NC2=O [Compound A10] | 0.01 to 0.1 µM |
| O=C(Cc1nnn[nH]1)N1CCC2(CC1)C[C@H](CCN1CCN(c3ccc(F)cc3)CC1)NC2=O [Compound A82] | ≥ 0.5 µM |
| CS(=O)(=O)NCC(=O)N1CCC2(CC1)C[C@H](CCN1CCN(c3cccc(Cl)c3)CC1)NC2=O [Compound A9] | 0.01 to 0.1 µM |
| NCC(=O)N1CCC2(CC1)C[C@H](CCN1CCN(c3ccc(F)cc3)CC1)NC2=O [Compound A2] | 0.01 to 0.1 µM |
| O=C(c1cccnc1)N1CCC2(CC1)C[C@H](CCN1CCN(c3ccc(F)cc3)CC1)NC2=O [Compound A81] | 0.1 to 0.5 µM |
| NCC(=O)N1CCC2(CC1)C[C@H](CCN1CCN(c3cccc(Cl)c3)CC1)NC2=O [Compound A1] | < 0.01 µM |
| CC(=O)N[C@@H](C)C(=O)N1CCC2(CC1)C[C@H](CCN1CCN(c3cccc(Cl)c3)CC1)NC2=O [Compound A40] | < 0.01 µM |
| CC(=O)N[C@@H](C)C(=O)N1CCC2(CC1)C[C@H](CCN1CCN(c3ccc(F)cc3)CC1)NC2=O [Compound A39] | < 0.01 µM |
| CC(=O)NCC(=O)N1CCC2(CC1)C[C@H](CCN1CCN(c3ccc(F)cc3)CC1)NC2=O [Compound A6] | < 0.01 µM |
| CC(=O)NCC(=O)N1CCC2(CC1)C[C@H](CCN1CCN(c3cccc(Cl)c3)CC1)NC2=O [Compound A5] | < 0.01 µM |

Further lines, results first:

| Kb | SMILES |
| --- | --- |
| 0.01 to 0.1 µM | CC(=O)N1CCC2(CC1)C[C@H](CCN1CCN(c3ccc(F)cc3)CC1)N(C)C2=O [Compound A88] |
| < 0.01 µM | CCC(=O)N1CCC2(CC1)C[C@H](CCN1CCN(c3ccc(F)cc3)CC1)N(C)C2=O [Compound A97] |
| 0.01 to 0.1 µM | COC(=O)N1CCC2(CC1)C[C@H](CCN1CCN(c3ccc(F)cc3)CC1)N(C)C2=O [Compound A124] |
| 0.01 to 0.1 µM | CCC1(CC)C[C@H](CCN2CCN(c3ccc(F)cc3)CC2)N(C)C1=O [Compound A87] |
| < 0.01 µM | CN1C(=O)C2(CCN(C(=O)C3CC3)CC2)C[C@@H]1CCN1CCN(c2ccc(F)cc2)CC1 [Compound A99] |
| < 0.01 µM | CC(F)(F)C(=O)N1CCC2(CC1)C[C@H](CCN1CCN(c3ccc(F)cc3)CC1)NC2=O [Compound A93] |
| < 0.01 µM | CC(=O)N[C@H](C(=O)N1CCC2(CC1)C[C@H](CCN1CCN(c3ccc(F)cc3)CC1)NC2=O)C(C)C [Compound A184] |
| 0.01 to 0.1 µM | CC(C)C(=O)N1CCC2(CC1)C[C@H](CCN1CCN(c3ccc(F)cc3)CC1)N(C)C2=O [Compound A98] |
| < 0.01 µM | CC(=O)N1CCC2(CC1)C[C@H](CCN1CCN(c3ccc(F)cc3)C[C@H]1C)NC2=O [Compound A108] |
| 0.1 to 0.5 µM | O=C(CN1CCOC1=O)N1CCC2(CC1)C[C@H](CCN1CCN(c3ccc(F)cc3)CC1)NC2=O [Compound A83] |
| 0.1 to 0.5 µM | O=C(c1cccnn1)N1CCC2(CC1)C[C@H](CCN1CCN(c3ccc(F)cc3)CC1)NC2=O [Compound A84] |
| < 0.01 µM | CN1C(=O)C2(CCN(C(=O)C(C)(C)C)CC2)C[C@@H]1CCN1CCN(c2ccc(F)cc2)CC1 [Compound A90] |
| 0.01 to 0.1 µM | CN1C(=O)C2(CCN(C(=O)C(C)(C)C)CC2)C[C@@H]1CCN1CCN(c2cccc(Cl)c2)CC1 [Compound A91] |
| 0.01 to 0.1 µM | O=C(CC(F)(F)F)N1CCC2(CC1)C[C@H](CCN1CCN(c3ccc(F)cc3)CC1)NC2=O [Compound A95] |
| < 0.01 µM | CCC1(CC)C[C@H](CCN2CCN(c3cccc(Cl)c3)CC2)N(C)C1=O [Compound A86] |
| 0.01 to 0.1 µM | CC(=O)N1CCC2(CC1)C[C@H](CCN1CCN(c3ccc(F)cc3)[C@@H](C)C1)NC2=O [Compound A109] |
| 0.01 to 0.1 µM | CCC1(CC)C[C@H](CCN2CCN(c3ccccc3)CC2)N(C)C1=O [Compound A85] |
| < 0.01 µM | CC(=O)N1CCC2(CC1)C[C@H](CCN1CCN(c3ccc(F)cc3)C[C@@H]1C)NC2=O [Compound A107] |
| 0.01 to 0.1 µM | CC(=O)N1CCC2(CC1)C[C@H](CCN1CCN(c3cccc(Cl)c3)CC1)N(C)C2=O [Compound A89] |
| < 0.01 µM | CN1C(=O)C2(CCN(C(=O)C(C)(F)F)CC2)C[C@@H]1CCN1CCN(c2ccc(F)cc2)CC1 [Compound A103] |
| < 0.01 µM | CC(=O)N[C@@H](C)C(=O)N1CCC2(CC1)C[C@H](CCN1CCN(c3ccc(F)cc3)C[C@H]1C)NC2=O [Compound A123] |
| < 0.01 µM | CC[C@H](NC(C)=O)C(=O)N1CCC2(CC1)C[C@H](CCN1CCN(c3ccc(F)cc3)CC1)NC2=O [Compound A183] |

— US20230002383A1, “NOVEL FUNCTIONALIZED LACTAMS AS MODULATORS OF THE 5-HYDROXYTRYPTAMINE RECEPTOR 7 AND THEIR METHOD OF USE” (Temple University-Of The Commonwealth System of Higher …, priority 2019, published 2023)
